Laboratory results reported in patent US9187784B2, “EphA4 is a disease modifier in motor neuron disease” (VIB VZW, priority 2011, dated 2015).
Marks after values point to notes of the source that are not given here.

Test system: TDP43A315T embryos
Assay: mutant TDP-43-induced motor axonopathy in zebrafish embryos
Format: in vivo
Procedure: FIG. 14: Inhibiting EphA4 signaling rescues motor axonopathies induced by overexpression of mutant TDP-43 and knockdown of Smn. Y-axes show motor axon length of zebrafish embryos (30 hpf) expressing TDP^WT (black bar) or TDP^A315T (white bar) (Panels A, B) or with unaltered (black bar) or reduced expression levels of Smn (white bar) (Panels C, D). Smn knockdown was established by injection of 3 ng (Panel C) or 6 ng (Panel D) atg-smn morpholino. Ctr-smn morpholino was injected as control. RTK1 signaling was inhibited by injection of 3 ng atg-RTK1 morpholino (shaded bars) (Panels A, C) or by treatment with C1 (500 μM, shaded bars) (Panels B, D). Injection of ctr-RTK1 morpholino and application of a 1/250 dilution of DMSO were used as control. ANOVA and Bonferroni's multiple comparison tests were used for statistical analysis: TDP^A315T/atg-RTK1 (n=24) vs. TDP^A315T/ctr-RTK1 (n=34, p=7.86×10^−5, Panel A), TDP^A315T/C1 (n=21) vs. TDP^A315T/DMSO (n=21, p=0.045, Panel B), atg-smn/atg-RTK1 (n=35) vs. atg-smn/ctr-RTK1 (n=35, p=4.93×10^−8, Panel C), atg-smn/C1 (n=91) vs. atg-smn/DMSO (n=105, p=1.27×10^−6, Panel D). Error bars are s.e.m.
Mann-Whitney test was used to determine significance between TDPA315T/ctr-RTK1 (4.5 ng) vs. TDPA315T/atg-RTK1 (4.5 ng, * p=0.001) and between TDPA315T/control vs. TDPA315T/C1 (° p=0.029). Control=1/250 DMSO and C1=500 μM.
A morpholino database of translation-blocking morpholinos (atg-mo) was used to perform a morpholino-based knockdown screening in a zebrafish model for ALS.^13 The standard control morpholino (5′-[…]-′3) (SEQ ID NO:4), provided by Gene tools, was used as control. Three nanograms of morpholino were co-injected with […] of SOD1 mRNA and the effect of gene knockdown on the mutant SOD1-induced axonopathy analyzed. Each morpholino was tested in two separate experiments. Only morphologically normal embryos were included for further analysis. Overexpression of SOD1 or TDP-43, applied to validate the protective morpholino, was established by injection of 1.76 ng SOD1 mRNA or 1.43 ng TDP-43 mRNA, respectively. Antisense morpholinos to knockdown zebrafish RTK1, RTK2, Smn and their five base pair-mismatch control morpholinos were developed by Gene tools: atg-RTK1 (5′-[…]-′3) (SEQ ID NO:5), atg-RTK2 (5′-[…]-[…]-′3) (SEQ ID NO:6), splice-RTK2 (5′-[…]-[…]-′3) (SEQ ID NO:7) and atg-smn (5′-[…]-3′) (SEQ ID NO:8). Compound 1 (2,5-dimethylpyrrolyl benzoic acid, Matrix Scientific) dissolved in DMSO was added to the water of 6-hpf-old zebrafish embryos.

Row | Compound | % affected embryos (TDPA315T embryos, morpholino 4.5 ng) | % affected embryos (TDPWT embryos, morpholino 4.5 ng) | effect on outgrowth deficit and aberrant branching induced by mutant TDP-43 (zebrafish embryos) | % affected embryos (TDPA315T embryos, C1 500 μM) | % affected embryos (TDPWT embryos, C1 500 μM)
1 | 5′-CTGTGAACACAAGCGCAGCCATTGG-′3 (all phosphorodiamidate morpholino (PMO)) [atg-RTK1] | 11* (43) % | 9 (42) % | rescued the outgrowth deficit and aberrant branching induced by mutant TDP-43 | – | –
2 | Cc1ccc(C)n1-c1ccc(C(=O)O)c(O)c1 [Compound C1] | – | – | – | 25° (16) % | 33 (36) %
